SMILES strings stand for the structures.

Here are results for 2 compounds from article PMC11705955, “Lack of activity of HIV-1 integrase strand-transfer inhibitors on recombinase activating gene (RAG) activity at clinically relevant concentrations” (Microbiology Spectrum, 2024).

Data set [1] has as its system murine mCherry-core RAG1 / mCherry-RAG2 V(D)J recombination in Expi293F cells. In words: Extrachromosomal cell-based V(D)J recombination assay (GFP reporter, flow cytometry). The source says: To further evaluate the effect of HIV-1 integrase inhibitors on RAG activity in a cellular context, we optimized a novel extrachromosomal cell-based V(D)J recombination assay, enabling assessment of multiple compounds in a dose–response manner by flow cytometry ([33]). The schematic of FL murine RAG1 and RAG2 proteins, including the active site residues (DDE motif) in RAG1 and catalytically essential core regions of each protein, are shown in Fig. 5A. The cell-based assay used vectors that encode for the core RAG1 protein (instead of the FL version) and FL murine RAG2 expressed as C-terminal fusions to mCherry, termed mCherry-core RAG1 and mCherry-RAG2. The core regions of each RAG protein are sufficient to catalyze V(D)J recombination, whereas the non-core regions function to regulate the recombination reaction ([13]). […] The consensus RSS used in this assay contains a conserved heptamer and nonamer separated by 12 or 23 non-conserved bp (12RSS and 23RSS) (Fig. 5B). A general schematic of the design for the plasmid substrate with the 12RSS and 23RSS orientations before and after V(D)J recombination is presented in Fig. 5C. More specifically, the plasmid substrate pMAXgfp-INV was designed with a 12RSS and a 23RSS flanking each side of the Pontellina plumata green fluorescent protein gene (termed maxGFP), where the gene is in an inverted orientation relative to the CMV promoter (Fig. 5D). The RSSs are positioned in a co-linear orientation, such that successful V(D)J recombination activity will result in inversion of the maxGFP gene to place it in a transcriptionally active orientation with resulting expression of GFP. Detection of GFP-expressing cells using microscopy and flow cytometry was used as a direct readout of V(D)J recombination activity.
For the recombination assay, the pMAXgfp-INV plasmid substrate and RAG1/RAG2 expression vectors (mCherry-core RAG1 and mCherry-RAG2) were transiently transfected into Expi293 cells in the absence or presence of integrase inhibitors and were assessed via microscopy and flow cytometry. The fluorescence signal from the mCherry-tag is used to assess transfection efficiency of RAG1/RAG2 vectors (Fig. 6A). We observed that transfection of the pMAXgfp-INV substrate into Expi293 cells with RAG1/RAG2 expression vectors yielded robust GFP expression 48 h post-transfection in the cells treated with vehicle control (0.1% dimethyl sulfoxide [DMSO]) (Fig. 6A). […] NU7026 inhibits double-strand break repair, which is a necessary step after DNA cleavage by RAG enzymes, and thus serves as an indirect inhibitor of RAG activity ([35]).
To test the effect of HIV-1 integrase inhibitors on V(D)J recombination activity, we optimized an extrachromosomal cell-based V(D)J recombination assay ([33]). Briefly, Expi293 cells were plated at 1 × 10^6 cells/mL in six-well plates in Gibco Expi293 expression media the day before transfection. The next day, the Expi293 cells were co-transfected with three separate vectors, pMAXgfp-INV plasmid substrate, mCherry-core RAG1, and mCherry-RAG2 expression vectors with a 4:1 transfection reagent:DNA ratio using ExpiFectamine 293 transfection reagent (Gibco). Vehicle or candidate inhibitors were added to cell samples 2 h after transfection, with six different concentrations of each inhibitor added to separate wells. Fivefold dilutions for each inhibitor starting from 10 µM were tested.
Experiments were performed with six separate inhibitors in at least three independent experiments. Two negative control conditions for recombination activity were performed in parallel and include (i) transfections in the presence of NU7026 at 30 and 50 µM (Abcam) and (ii) using a modified pMAXgfp-INV substrate containing two 12RSSs (instead of one 12RSS and one 23RSS) that is inefficiently recombined by the RAG proteins. Vehicle control (0.1% DMSO) served as the positive control for GFP expression. The fluorescence signal from the mCherry tag was used to assess transfection efficiency. […]
(A flow cytometer gives signals particle by particle.)

Data set [2] can be described thus: 5-day cytotoxicity assay with Cell Titer Glo readout, GALPC3. Type of data set: cell-based. To be noted: human. The source says:
(§1) Supplemental Table S2. CC50 values for INSTIs in 5- day cytotoxicity as says with Cell Titer
(§2) Expi293F GALPC3 GALHEP HUH7 MRC5 MT4 PBMC PBMC
(§3) Kidney Prostate Hepatoma Hepatoma Lung T-cell line Primary Primary
(§4) (embryonic) cancer cell cell line cell line fibroblast cells

Data set [3] is described as follows: 5-day cytotoxicity assay with Cell Titer Glo readout, GALHEPG2. Type of data set: cell-based. As to conditions: human.
Excerpt: as §1, §2, §3, §4

A short description of data set [4]: 5-day cytotoxicity assay with Cell Titer Glo readout, HUH7. Type of data set: cell-based. To be noted: human.
Excerpt: as §1, §2, §3, §4
Background: ATP-based viability assays read luminescence as a measure of living cells.

Data set [5] in a line: 5-day cytotoxicity assay with Cell Titer Glo readout, MRC5. It is filed as cell-based. As to conditions: human.
Excerpt: as §1, §2, §3, §4

Data set [6] is described as follows: 5-day cytotoxicity assay with Cell Titer Glo readout, MT4. To be noted: human. Type of data set: cell-based.
Excerpt: as §1, §2, §3, §4

Data set [7] can be described thus: 5-day cytotoxicity assay with Cell Titer Glo readout, PBMC. It is filed as cell-based. As to conditions: CC50.
Excerpt: as §1, §2, §3, §4

Another data set has as its system PBMC primary cells. The description is as above. Type of data set: cell-based. To be noted: 5 day.
Excerpt: as §1, §2, §3, §4

As for `O=c1cc(N2CCOCC2)oc2c1ccc1ccccc12` [NU7026], in data set [1] (across concentrations tested, 48 h post-transfection), the “Effect on percentage of GFP-positive cells / RAG recombination” value is “dose-dependent decrease in percentage of GFP-positive cells”. Besides, in data set [1] (compound added 2 h after transfection, read 48 h post-transfection, serum-free media, read-out: IC50 in cellular V(D)J recombination assay (% GFP-positive cells)), the IC50 (usually the concentration that inhibits the measured activity by half) stood at 41500 ± 9400 nM.

As to `COc1ccc(C[C@H](N)C(=O)N[C@H]2[C@@H](O)[C@H](n3cnc4c(N(C)C)ncnc43)O[C@@H]2CO)cc1` [Puromycin], the CC50 – broadly, the concentration that lowers cell viability or growth by half – at 5 day was determined as 390 nM in data set [2]; 410 nM in data set [3]; 320 nM in data set [4]; 310 nM in data set [5]; 210 nM in data set [6]; 540 nM in data set [7]. Moreover, in the data set with PBMC primary cells, it took 500 nM to reach half-maximal cytotoxicity (CC50).
